We go through three substances from patent publication US8410046B2, “Antibiotic peptide derived from ribosomal protein L1 of Helicobacter pylori and use thereof” (Industry-Academic Cooperation Foundation, Chosun University, priority 2008, dated 2013).

What all share (format): cell-based
Data set [1] concerns Staphylococcus aureus (ATCC 25923). The data set can be described thus: MIC, antimicrobial activity (microtitrate plate, absorbance 620 nm). Particulars: Gram positive bacterium; 6 hours at 37° C. The text has this: (§1) The present inventors measured MIC, which is the minimum concentration of not divided bacterial cell, in order to compare the antimicrobial activity of the peptide prepared by the method of <experimental example 1>.
(§2) More specifically, the present inventors used Escherichia coli, Pseudomonas aeruginosa, Proteus vulgaris, Salmonella typhimurium as a Gram negative bacterium and used Staphylococcus aureus, Listeria monocytogenes, Staphylococcus epidermidis, Bacillus subtilis as a Gram positive bacterium. In addition, Escherichia coli (ATCC 25922), Listeria monocytogenes (ATCC 19115), and Staphylococcus aureus (ATCC 25923) were provided by “American Type Culture Collection” and Bacillus subtilis (KCTC 1918), […] (KCTC 3096), Pseudomonas aeruginosa (KCTC 1637) and Proteus vulgaris (KCTC 2433) were provided by “Korean Collection for Type Cultures”. After culturing each strain by up to mid-log phase in LB medium (1% Bacto tryptone, 0.5% extraction of Bacto yeast, 1% sodium chloride; Sigma, USA) and diluting it by the bacterial cell concentration of 1×10^4 cell/100 μl with 1% Bacto pepton medium (Difco, USA), they inoculated the strain to Microtitrate Plate (Nunc, USA). The present inventors added both the peptide of the present invention (experimental group 1 and 2) synthesized in the <experimental example 1> and maternal peptide(control group) into the plate after diluting separately by 1/2 times from 25 μM/well, and cultured them for 6 hours at 37° C. In addition, they measured absorbance under 620 nm of wavelength using Microtitrate Plate reader (Merck Elisa reader, Germany) and determined the MIC value of each strain, after then they described the final result in the following Table 2.

The test system of data set [2] is Staphylococcus epidermidis. The data set is described as above. Particulars: Gram positive bacterium; 6 hours at 37° C.
From the text: as §1, §2

Data set [3] has as its system Listeria monocytogenes (ATCC 19115). The data set is described as above. Particulars: Gram positive bacterium; 6 hours at 37° C.
From the text: as §1, §2

The subject of data set [4] is Proteus vulgaris (KCTC 2433). The description is as above. Particulars: Gram negative bacterium; 6 hours at 37° C.
From the text: as §1, §2

Data set [5] has as its system Pseudomonas aeruginosa (KCTC 1637). The data set is described as above. Particulars: Gram negative bacterium; 6 hours at 37° C.
From the text: as §1, §2

The test system of data set [6] is Salmonella typhimurium. The description is as above. Particulars: Gram negative bacterium; 6 hours at 37° C.
From the text: as §1, §2

Data set [7] deals with Escherichia coli (ATCC 25922). The data set is described as above. Particulars: Gram negative bacterium; 6 hours at 37° C.
From the text: as §1, §2

Data set [8] relates to HaCaT cell line. Description: Cytotoxicity in the normal cell line (MTT). The method, then: (§3) In order to confirm the cytotoxicity in the normal cell line, which was prepared by the <experimental example 1>, the present inventors measured the cytotoxicity using HaCaT cell line (Dr. N E. Fusenig, Heidelberg, Germany) and NIH3T3 cell line (ATCC(CRL-1658™)).
(§4) Specifically, they inject HaCaT cell line and NIH3T3 cell line, which were cultured in DMEM badge including 10% FBS (Fetal Bovine Serum), into 96-well plate with 3×10^3 each and cultured them for 24 hours, after then, they treated the peptides prepared by the <experimental example> to the HaCaT cell line and NIH3T3 cell line according to the concentration respectively and reacted them in the 5% CO2 incubator for 24 hours. After culturing, they put 20 ul of MTT (Thiazolyl Blue Tetrazolium Bromide) solution (5 mg/ml in PBS), into each well and reacted them four hours. And they removed supernatant and melted MTT crystal prepared by adding 200 ul of DMSO, and then they studied the result at 560 nm.

In data set [9] the test system is NIH3T3 cell line. Description: Cytotoxicity in the normal cell line (MTT). The method, then: as §3, §4
For data set [10], the system named is Bacillus subtilis (KCTC 1918). Particulars: Gram positive bacterium; 6 hours at 37° C.
From the text: as §1, §2

Data set [11] concerns human erythrocyte. The data set can be described thus: Erythrocyte hemolytic activity. Particulars: for hemolytic activity (result in words): human erythrocyte, by the concentration of 200 μM; for % Hemolysis: 8% human erythrocyte in PBS pH 7.0, 1 hour, 1% triton X-100 = 100%. The method, then: Firstly, the present inventors diluted human erythrocyte with phosphate buffer (PBS, pH 7.0) to be a 8% concentration and then, they diluted each described peptide comprising the amino acid sequence of SEQ. ID. NO: 1 to 3 in the Table 1 continually at the 1/2 concentration starting from 200 μM and make them reacted for 1 hour at 37. After then, the present inventors measured the amount of hemoglobin included in the supernatant obtained by centrifugating it with 1,000 g and the absorbance under the 414 nm of wavelength of the supernatant. In order to investigate relative level a comparative study of cytotoxicity, they measured the absorbance of supernatant with adding 1% triton X-100 (sigma, USA) to the human erythrocyte cell. Making the cytotoxicity of 1% triton X-100 to become a 100%, the present inventors calculated hemolysis of the peptides (experimental group 1 and 2) and maternal peptides (control group) of the present invention according to the following mathematical formula.
In the mathematical formula, absorbance A means the absorbance of the peptide solution under the 414 nm of wavelength, absorbance B means the absorbance of PBS under the 414 nm of wavelength and absorbance C means the absorbance of 1% triton X-100 under the 414 nm of wavelength.

[12] abbreviates: NIH3T3 cell line, 24 hours, MTT.

Entries after “also recorded” stand apart in the source; their conditions may differ. Read-outs that look alike come from different tables or passages of the source. Where no end group is shown, it is not given here.

“AKRLKKLAKKIWKWK-NH2 [NT3-F1AF8A-A2, AKRLKKLAKKIWKWK-NH2]”: in data set [1], the “MIC Staphylococcus aureus” value is 4 µM. Further, the “MIC Staphylococcus epidermidis” value in data set [2] is 2 to 4 µM. Moreover, the “MIC Listeria monocytogenes” value in data set [3] came to 2 µM. Besides, in [4], the “MIC Proteus vulgaris” value was 2 to 4 µM. For the same substance, in data set [5], the “MIC Pseudomonas aeruginosa” value came out at 2 µM. In addition, in data set [6], the “MIC Salmonella typhimurium” value was in the range of 1 to 2 µM. In addition, the “MIC Escherichia coli” value in [7] is 4 µM. Further, the “cytotoxicity (result in words, FIG. 1)” value in [8] is given as “little cytotoxicity”. Further, in data set [9], the “cytotoxicity (result in words, FIG. 2)” value was “little cytotoxicity”. The “MIC Bacillus subtilis” value in data set [10] turned out to be 2 µM. In data set [11], the “hemolytic activity (result in words)” value was “no hemolytic activity”. Besides, the “% Hemolysis” value in [11] (peptide 3.13 μM), in data set [11] (peptide 6.25 μM), in [11] (peptide 12.5 μM), in data set [11] (peptide 25 μM), in [11] (peptide 50 μM) and in data set [11] (peptide 100 μM) was 0% each time. Further, the “% Hemolysis” value in data set [11] (peptide 200 μM) is 0%.
“AKRLKKLAKKIWNWK-NH2 [NT3-F1AF8A, AKRLKKLAKKIWNWK-NH2]”: the “MIC Staphylococcus aureus” value in data set [1] is 4 to 8 µM. Besides, in data set [2], the “MIC Staphylococcus epidermidis” value was 16 µM. Moreover, the “MIC Listeria monocytogenes” value in data set [3] is 2 µM. For the same substance, the “MIC Proteus vulgaris” value in [4] came out at 4 µM. The “MIC Pseudomonas aeruginosa” value in data set [5] was 2 µM. For the same substance, the “MIC Salmonella typhimurium” value in [6] worked out at 2 µM. For the same substance, in [7], the “MIC Escherichia coli” value was 16 to 32 µM. For the same substance, the “cytotoxicity (result in words, FIG. 1)” value in data set [8] (HaCaT cell line, 24 hours, MTT) is on record as “little cytotoxicity”. Moreover, the “cytotoxicity (result in words, FIG. 2)” value in data set [9] (setting [12]) was “little cytotoxicity”. In addition, in [10], the “MIC Bacillus subtilis” value was 4 µM. The “hemolytic activity (result in words)” value in [11] is listed as “no hemolytic activity; also recorded: did not generate hemolytic phenomenon”. The “% Hemolysis” value in data set [11] (peptide 3.13 μM), in data set [11] (peptide 6.25 μM), in data set [11] (peptide 12.5 μM), in [11] (peptide 25 μM), in data set [11] (peptide 50 μM) and in [11] (peptide 100 μM) was 0% throughout. Moreover, the “% Hemolysis” value in [11] (peptide 200 μM) is 0%.
As for “FKRLKKLFKKIWNWK-NH2 [HPA3NT3, FKRLKKLFKKIWNWK-NH2, reference compound]”, in data set [1], the “MIC Staphylococcus aureus” value is 2 µM. The “MIC Staphylococcus epidermidis” value in data set [2] lay within 2 to 4 µM. Besides, the “MIC Listeria monocytogenes” value in [3] was found to be 2 µM. For the same substance, the “MIC Proteus vulgaris” value in [4] came out at 8 µM. Besides, the “MIC Pseudomonas aeruginosa” value in data set [5] was 2 µM. Also, in data set [6], the “MIC Salmonella typhimurium” value stood at 2 µM. In data set [7], the “MIC Escherichia coli” value worked out at 4 µM. For the same substance, the “cytotoxicity (result in words, FIG. 1)” value in data set [8] (HaCaT cell line, 24 hours, MTT) was “high cytotoxicity”. Also, the “cytotoxicity (result in words, FIG. 2)” value in data set [9] (setting [12]) is reported as “high cytotoxicity”. In addition, the “MIC Bacillus subtilis” value in data set [10] worked out at 2 µM. The “% Hemolysis” value in [11] (peptide 3.13 μM) is given as 0%; in data set [11] (peptide 6.25 μM), 0%; in data set [11] (peptide 12.5 μM), 0%; in data set [11] (peptide 25 μM), 0%; in [11] (peptide 50 μM), 7.12%; in data set [11] (peptide 100 μM) it was 11.35%. The “% Hemolysis” value in data set [11] (peptide 200 μM) was determined as 37.23%.
